# Results as given in ChEMBL document CHEMBL5614409, “Discovery of potent HIV-1 NNRTIs by CuAAC click-chemistry-based miniaturized synthesis, rapid screening and structure optimization” (Eur J Med Chem, 2024).
# pEC50: −log10 of the molar value.
# System: Human immunodeficiency virus 1
# Assay: Antiviral activity against HIV1 IIIB infected in MT4 cells assessed as reduction in virus induced cytopathic effect incubated for 5 days by MTT method
# Assay type: functional, organism-based
# Conditions: Human immunodeficiency virus 1, IIIB, MT4, 120 h
row,Structure (SMILES),pEC50
1,CNC(=O)Cn1cc(CN2CCC(Nc3nccc(Oc4c(C)cc(/C=C/C#N)cc4C)n3)CC2)nn1,9.00
2,Cc1cc(/C=C/C#N)cc(C)c1Oc1nc(NC2CCN(Cc3cn(CC(=O)NC4CC4)nn3)CC2)nc2ccsc12,8.22
3,CCNC(=O)Cn1cc(CN2CCC(Nc3nc(Oc4c(C)cc(/C=C/C#N)cc4C)c4ccccc4n3)CC2)nn1,8.30
4,Cc1cc(/C=C/C#N)cc(C)c1Oc1nc(NC2CCN(Cc3cn(CC(=O)NC4CC4)nn3)CC2)nc2ccccc12,8.30
5,Cc1cc(/C=C/C#N)cc(C)c1Oc1nc(NC2CCN(Cc3cn(CC(=O)NC4CCOCC4)nn3)CC2)nc2c1COC2,7.96
6,Cc1cc(/C=C/C#N)cc(C)c1Oc1ccnc(NC2CCN(Cc3cn(CC(=O)NC4CCOCC4)nn3)CC2)n1,8.40
7,Cc1cc(/C=C/C#N)cc(C)c1Oc1nc(NC2CCN(Cc3cn(CC(=O)NC4CCOCC4)nn3)CC2)nc2ccsc12,8.30

# System: not listed separately
# Assay: Cytotoxicity against human MT4 cells assessed as reduction in cell viability incubated for 5 days by MTT method
# Assay type: toxicity, cell-based
# Conditions: time 5 day
row,Structure (SMILES),CC50 at 120 h [µM]
1,O=C1Nc2ccc(Cl)cc2[C@@](C#CC2CC2)(C(F)(F)F)O1 [EFAVIRENZ],> 6.35
2,CNC(=O)Cn1cc(CN2CCC(Nc3nccc(Oc4c(C)cc(/C=C/C#N)cc4C)n3)CC2)nn1,23.5
3,Cc1cc(/C=C/C#N)cc(C)c1Oc1nc(NC2CCN(Cc3cn(CC(=O)NC4CC4)nn3)CC2)nc2ccsc12,18.2
4,CCNC(=O)Cn1cc(CN2CCC(Nc3nc(Oc4c(C)cc(/C=C/C#N)cc4C)c4ccccc4n3)CC2)nn1,23.7
5,Cc1cc(/C=C/C#N)cc(C)c1Oc1nc(NC2CCN(Cc3cn(CC(=O)NC4CC4)nn3)CC2)nc2ccccc12,22.4
6,Cc1cc(/C=C/C#N)cc(C)c1Oc1nc(NC2CCN(Cc3cn(CC(=O)NC4CCOCC4)nn3)CC2)nc2c1COC2,112
7,Cc1cc(/C=C/C#N)cc(C)c1Oc1ccnc(NC2CCN(Cc3cn(CC(=O)NC4CCOCC4)nn3)CC2)n1,19.2
8,Cc1cc(/C=C/C#N)cc(C)c1Oc1nc(NC2CCN(Cc3cn(CC(=O)NC4CCOCC4)nn3)CC2)nc2ccsc12,15.6

# System: not listed separately
# Assay: Selectivity index, ratio of CC50 for human MT4 cells to EC50 for antiviral activity against HIV1 IIIB infected in MT4 cells
# Assay type: toxicity, cell-based
# Conditions: read-out: Ratio CC50/EC50
row,Structure (SMILES),selectivity ratio
1,CNC(=O)Cn1cc(CN2CCC(Nc3nccc(Oc4c(C)cc(/C=C/C#N)cc4C)n3)CC2)nn1,19600
2,Cc1cc(/C=C/C#N)cc(C)c1Oc1nc(NC2CCN(Cc3cn(CC(=O)NC4CC4)nn3)CC2)nc2ccsc12,2940
3,CCNC(=O)Cn1cc(CN2CCC(Nc3nc(Oc4c(C)cc(/C=C/C#N)cc4C)c4ccccc4n3)CC2)nn1,4230
4,Cc1cc(/C=C/C#N)cc(C)c1Oc1nc(NC2CCN(Cc3cn(CC(=O)NC4CC4)nn3)CC2)nc2ccccc12,4150
5,Cc1cc(/C=C/C#N)cc(C)c1Oc1nc(NC2CCN(Cc3cn(CC(=O)NC4CCOCC4)nn3)CC2)nc2c1COC2,10400
6,Cc1cc(/C=C/C#N)cc(C)c1Oc1ccnc(NC2CCN(Cc3cn(CC(=O)NC4CCOCC4)nn3)CC2)n1,4560
7,Cc1cc(/C=C/C#N)cc(C)c1Oc1nc(NC2CCN(Cc3cn(CC(=O)NC4CCOCC4)nn3)CC2)nc2ccsc12,3060

# System: Human immunodeficiency virus 1
# Assay: Antiviral activity against HIV1 IIIB harboring L100I mutant infected in MT4 cells assessed as reduction in virus induced cytopathic effect incubated for 5 days by MTT method
# Assay type: functional, organism-based
# Conditions: Human immunodeficiency virus 1, IIIB, MT4, 120 h
row,Structure (SMILES),pEC50
1,CNC(=O)Cn1cc(CN2CCC(Nc3nccc(Oc4c(C)cc(/C=C/C#N)cc4C)n3)CC2)nn1,8.00
2,Cc1cc(/C=C/C#N)cc(C)c1Oc1nc(NC2CCN(Cc3cn(CC(=O)NC4CC4)nn3)CC2)nc2ccsc12,7.77
3,CCNC(=O)Cn1cc(CN2CCC(Nc3nc(Oc4c(C)cc(/C=C/C#N)cc4C)c4ccccc4n3)CC2)nn1,7.74
4,Cc1cc(/C=C/C#N)cc(C)c1Oc1nc(NC2CCN(Cc3cn(CC(=O)NC4CC4)nn3)CC2)nc2ccccc12,7.72
5,Cc1cc(/C=C/C#N)cc(C)c1Oc1nc(NC2CCN(Cc3cn(CC(=O)NC4CCOCC4)nn3)CC2)nc2c1COC2,7.68
6,Cc1cc(/C=C/C#N)cc(C)c1Oc1ccnc(NC2CCN(Cc3cn(CC(=O)NC4CCOCC4)nn3)CC2)n1,7.72
7,Cc1cc(/C=C/C#N)cc(C)c1Oc1nc(NC2CCN(Cc3cn(CC(=O)NC4CCOCC4)nn3)CC2)nc2ccsc12,8.05

# System: Human immunodeficiency virus 1
# Assay: Antiviral activity against HIV1 IIIB harboring K103 N mutant infected in MT4 cells assessed as reduction in virus induced cytopathic effect incubated for 5 days by MTT method
# Assay type: functional, organism-based
# Conditions: Human immunodeficiency virus 1, IIIB, MT4, 120 h
row,Structure (SMILES),pEC50
1,CNC(=O)Cn1cc(CN2CCC(Nc3nccc(Oc4c(C)cc(/C=C/C#N)cc4C)n3)CC2)nn1,8.70
2,CCNC(=O)Cn1cc(CN2CCC(Nc3nc(Oc4c(C)cc(/C=C/C#N)cc4C)c4ccccc4n3)CC2)nn1,8.00
3,Cc1cc(/C=C/C#N)cc(C)c1Oc1nc(NC2CCN(Cc3cn(CC(=O)NC4CC4)nn3)CC2)nc2ccccc12,8.05
4,Cc1cc(/C=C/C#N)cc(C)c1Oc1nc(NC2CCN(Cc3cn(CC(=O)NC4CCOCC4)nn3)CC2)nc2c1COC2,7.80
5,Cc1cc(/C=C/C#N)cc(C)c1Oc1ccnc(NC2CCN(Cc3cn(CC(=O)NC4CCOCC4)nn3)CC2)n1,8.30
6,Cc1cc(/C=C/C#N)cc(C)c1Oc1nc(NC2CCN(Cc3cn(CC(=O)NC4CCOCC4)nn3)CC2)nc2ccsc12,8.40

# System: Human immunodeficiency virus 1
# Assay: Antiviral activity against HIV1 IIIB harboring Y181C mutant infected in MT4 cells assessed as reduction in virus induced cytopathic effect incubated for 5 days by MTT method
# Assay type: functional, organism-based
# Conditions: Human immunodeficiency virus 1, IIIB, MT4, 120 h
row,Structure (SMILES),pEC50
1,CNC(=O)Cn1cc(CN2CCC(Nc3nccc(Oc4c(C)cc(/C=C/C#N)cc4C)n3)CC2)nn1,7.96
2,Cc1cc(/C=C/C#N)cc(C)c1Oc1nc(NC2CCN(Cc3cn(CC(=O)NC4CC4)nn3)CC2)nc2ccsc12,7.64
3,CCNC(=O)Cn1cc(CN2CCC(Nc3nc(Oc4c(C)cc(/C=C/C#N)cc4C)c4ccccc4n3)CC2)nn1,7.48
4,Cc1cc(/C=C/C#N)cc(C)c1Oc1nc(NC2CCN(Cc3cn(CC(=O)NC4CC4)nn3)CC2)nc2ccccc12,7.39
5,Cc1cc(/C=C/C#N)cc(C)c1Oc1nc(NC2CCN(Cc3cn(CC(=O)NC4CCOCC4)nn3)CC2)nc2c1COC2,7.42
6,Cc1cc(/C=C/C#N)cc(C)c1Oc1ccnc(NC2CCN(Cc3cn(CC(=O)NC4CCOCC4)nn3)CC2)n1,7.66
7,Cc1cc(/C=C/C#N)cc(C)c1Oc1nc(NC2CCN(Cc3cn(CC(=O)NC4CCOCC4)nn3)CC2)nc2ccsc12,7.72

# System: Human immunodeficiency virus 1
# Assay: Antiviral activity against HIV1 IIIB harboring Y188L mutant infected in MT4 cells assessed as reduction in virus induced cytopathic effect incubated for 5 days by MTT method
# Assay type: functional, organism-based
# Conditions: Human immunodeficiency virus 1, IIIB, MT4, 120 h
row,Structure (SMILES),pEC50
1,CNC(=O)Cn1cc(CN2CCC(Nc3nccc(Oc4c(C)cc(/C=C/C#N)cc4C)n3)CC2)nn1,6.26
2,Cc1cc(/C=C/C#N)cc(C)c1Oc1nc(NC2CCN(Cc3cn(CC(=O)NC4CC4)nn3)CC2)nc2ccsc12,7.06
3,CCNC(=O)Cn1cc(CN2CCC(Nc3nc(Oc4c(C)cc(/C=C/C#N)cc4C)c4ccccc4n3)CC2)nn1,7.22
4,Cc1cc(/C=C/C#N)cc(C)c1Oc1nc(NC2CCN(Cc3cn(CC(=O)NC4CC4)nn3)CC2)nc2ccccc12,7.24
5,Cc1cc(/C=C/C#N)cc(C)c1Oc1nc(NC2CCN(Cc3cn(CC(=O)NC4CCOCC4)nn3)CC2)nc2c1COC2,6.80
6,Cc1cc(/C=C/C#N)cc(C)c1Oc1ccnc(NC2CCN(Cc3cn(CC(=O)NC4CCOCC4)nn3)CC2)n1,6.28
7,Cc1cc(/C=C/C#N)cc(C)c1Oc1nc(NC2CCN(Cc3cn(CC(=O)NC4CCOCC4)nn3)CC2)nc2ccsc12,7.40

# System: Human immunodeficiency virus 1
# Assay: Antiviral activity against HIV1 IIIB harboring E138K mutant infected in MT4 cells assessed as reduction in virus induced cytopathic effect incubated for 5 days by MTT method
# Assay type: functional, organism-based
# Conditions: Human immunodeficiency virus 1, IIIB, MT4, 120 h
row,Structure (SMILES),pEC50
1,CNC(=O)Cn1cc(CN2CCC(Nc3nccc(Oc4c(C)cc(/C=C/C#N)cc4C)n3)CC2)nn1,8.00
2,Cc1cc(/C=C/C#N)cc(C)c1Oc1nc(NC2CCN(Cc3cn(CC(=O)NC4CC4)nn3)CC2)nc2ccsc12,7.59
3,CCNC(=O)Cn1cc(CN2CCC(Nc3nc(Oc4c(C)cc(/C=C/C#N)cc4C)c4ccccc4n3)CC2)nn1,7.44
4,Cc1cc(/C=C/C#N)cc(C)c1Oc1nc(NC2CCN(Cc3cn(CC(=O)NC4CC4)nn3)CC2)nc2ccccc12,7.54
5,Cc1cc(/C=C/C#N)cc(C)c1Oc1nc(NC2CCN(Cc3cn(CC(=O)NC4CCOCC4)nn3)CC2)nc2c1COC2,7.60
6,Cc1cc(/C=C/C#N)cc(C)c1Oc1ccnc(NC2CCN(Cc3cn(CC(=O)NC4CCOCC4)nn3)CC2)n1,7.47
7,Cc1cc(/C=C/C#N)cc(C)c1Oc1nc(NC2CCN(Cc3cn(CC(=O)NC4CCOCC4)nn3)CC2)nc2ccsc12,7.70

# System: Human immunodeficiency virus 1
# Assay: Antiviral activity against HIV1 IIIB harboring F227L/V106A double mutant infected in MT4 cells assessed as reduction in virus induced cytopathic effect incubated for 5 days by MTT method
# Assay type: functional, organism-based
# Conditions: Human immunodeficiency virus 1, IIIB, MT4, 120 h
row,Structure (SMILES),pEC50
1,CNC(=O)Cn1cc(CN2CCC(Nc3nccc(Oc4c(C)cc(/C=C/C#N)cc4C)n3)CC2)nn1,6.68
2,Cc1cc(/C=C/C#N)cc(C)c1Oc1nc(NC2CCN(Cc3cn(CC(=O)NC4CC4)nn3)CC2)nc2ccsc12,6.80
3,CCNC(=O)Cn1cc(CN2CCC(Nc3nc(Oc4c(C)cc(/C=C/C#N)cc4C)c4ccccc4n3)CC2)nn1,6.03
4,Cc1cc(/C=C/C#N)cc(C)c1Oc1nc(NC2CCN(Cc3cn(CC(=O)NC4CC4)nn3)CC2)nc2ccccc12,6.26
5,Cc1cc(/C=C/C#N)cc(C)c1Oc1nc(NC2CCN(Cc3cn(CC(=O)NC4CCOCC4)nn3)CC2)nc2c1COC2,6.16
6,Cc1cc(/C=C/C#N)cc(C)c1Oc1ccnc(NC2CCN(Cc3cn(CC(=O)NC4CCOCC4)nn3)CC2)n1,6.63
7,Cc1cc(/C=C/C#N)cc(C)c1Oc1nc(NC2CCN(Cc3cn(CC(=O)NC4CCOCC4)nn3)CC2)nc2ccsc12,6.97

# System: Human immunodeficiency virus 1
# Assay: Antiviral activity against HIV1 IIIB harboring RES056 mutant infected in MT4 cells assessed as reduction in virus induced cytopathic effect incubated for 5 days by MTT method
# Assay type: functional, organism-based
# Conditions: Human immunodeficiency virus 1, IIIB, MT4, 120 h
row,Structure (SMILES),pEC50
1,CNC(=O)Cn1cc(CN2CCC(Nc3nccc(Oc4c(C)cc(/C=C/C#N)cc4C)n3)CC2)nn1,6.58
2,Cc1cc(/C=C/C#N)cc(C)c1Oc1nc(NC2CCN(Cc3cn(CC(=O)NC4CC4)nn3)CC2)nc2ccsc12,6.72
3,CCNC(=O)Cn1cc(CN2CCC(Nc3nc(Oc4c(C)cc(/C=C/C#N)cc4C)c4ccccc4n3)CC2)nn1,6.62
4,Cc1cc(/C=C/C#N)cc(C)c1Oc1nc(NC2CCN(Cc3cn(CC(=O)NC4CC4)nn3)CC2)nc2ccccc12,6.63
5,Cc1cc(/C=C/C#N)cc(C)c1Oc1nc(NC2CCN(Cc3cn(CC(=O)NC4CCOCC4)nn3)CC2)nc2c1COC2,6.41
6,Cc1cc(/C=C/C#N)cc(C)c1Oc1ccnc(NC2CCN(Cc3cn(CC(=O)NC4CCOCC4)nn3)CC2)n1,6.72
7,Cc1cc(/C=C/C#N)cc(C)c1Oc1nc(NC2CCN(Cc3cn(CC(=O)NC4CCOCC4)nn3)CC2)nc2ccsc12,7.00
